Test results: publication doi:10.1101/2022.08.09.503277v2 (biorxiv, 2022)

Target: ECD-AT1G56145 (IGP1) (Arabidopsis thaliana, UniProt F4I3K3)
Assay: isothermal titration calorimetry
Assay type: binding
Settings: 20 mM sodium citrate pH 5.0, 150 mM NaCl, 25 °C; single site, N fixed to 1

| SMILES | Kd |
| --- | --- |
| OC[C@H]1O[C@@H](O[C@H]2[C@H](O)[C@@H](O)[C@H](O[C@H]3[C@H](O)[C@@H](O)C(O)O[C@@H]3CO)O[C@@H]2CO)[C@H](O)[C@@H](O)[C@@H]1O (some centres unmarked) [CEL3] | 1190 ± 30 nM |
| OC[C@H]1O[C@@H](O[C@H]2[C@H](O)[C@@H](O)[C@H](O[C@H]3[C@H](O)[C@@H](O)[C@H](O[C@H]4[C@H](O)[C@@H](O)[C@H](O[C@H]5[C@H](O)[C@@H](O)C(O)O[C@@H]5CO)O[C@@H]4CO)O[C@@H]3CO)O[C@@H]2CO)[C@H](O)[C@@H](O)[C@@H]1O (some centres unmarked) [CEL5] | 1400 ± 10 nM |
